# Experimental data as given in patent US6825230B2, “Spiro and dispiro 1,2,4-trixolane antimalarials” (Medicines for Malaria Venture MMV, priority 2002, dated 2004).
# Read-outs that look alike come from different tables or passages of the source.
# How the values were obtained:
# [1] = system: chloroquine-resistant K1 strain of P. falciparum; test: In vitro antimalarial semiautomated microdilution assay ([3H]-hypoxanthine incorporation), K1 strain; assay type: cell-based, Plasmodium falciparum; details: Plasmodium falciparum
# In short: (§1)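 Asynchronous stock-culture parasites (intraerythrocytic forms), serial compound dilutions; readout [3H]-hypoxanthine uptake; IC50 via Logit regression.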
# [2] = system: chloroquine-sensitive NF54 strain of P. falciparum; test: In vitro antimalarial semiautomated microdilution assay ([3H]-hypoxanthine incorporation), NF54 strain; assay type: cell-based, Plasmodium falciparum; details: Plasmodium falciparum
# In short: as §1
# [3] = system: ANKA strain of P. berghei; test: Single dose STI in vivo screen in infected mice; parameters: species or system Plasmodium berghei; details: for Survival (days) 10 mg/kg SSV po: single 10 mg/kg po in SSV; for Survival (days) 10 mg/kg SSV po / Survival (days) 10 mg/kg po / Survival (days) 10 mg/kg sc: untreated 6-7 days; for Activity (%) 10 mg/kg SSV po: single 10 mg/kg po in standard suspending vehicle (SSV) on day 1 post-infection; for Survival (days) 10 mg/kg po: single 10 mg/kg po in 3% ethanol and 7% Tween 80; for Activity (%) 10 mg/kg po: single 10 mg/kg po in 3% ethanol and 7% Tween 80 on day 1 post-infection; for Survival (days) 10 mg/kg sc: single 10 mg/kg sc in 3% ethanol and 7% Tween 80; for Activity (%) 10 mg/kg sc: single 10 mg/kg sc in 3% ethanol and 7% Tween 80 on day 1 post-infection
# [4] = chloroquine-resistant K1 strain, 72 h incubation, read-out: IC50 (ng/ml) K1
# [5] = chloroquine-sensitive NF54 strain, 72 h incubation, read-out: IC50 (ng/ml) NF54
# [6] = K1, 72 h, read-out: IC50 (ng/ml) K1, chloroquine-resistant K1 strain, 72 h incubation
# [7] = NF54, 72 h, read-out: IC50 (ng/ml) NF54, chloroquine-sensitive NF54 strain, 72 h incubation
# [8] = percent reduction in parasitemia on day 3
Compound,"IC50 [1, 4]","IC50 [2, 5]",Survival (days) 3 mg/kg SSV po ([3]; single 3 mg/kg po in SSV),Survival (days) 10 mg/kg SSV po [3],"IC50 [1, 6]","IC50 [2, 7]","Activity (%) 3 mg/kg SSV po ([3]; single 3 mg/kg po in SSV, percent reduction in parasitemia on day 3)","Activity (%) 10 mg/kg SSV po [3, 8]",Survival (days) 10 mg/kg po [3],"Activity (%) 10 mg/kg po [3, 8]",Survival (days) 10 mg/kg sc [3],"Activity (%) 10 mg/kg sc [3, 8]"
NC1(C(=O)NC[C@H]2CC[C@]3(CC2)OO[C@]2(O3)C3CC4CC(C3)CC2C4)CCCC1 [OZ317],0.33 ng/mL,0.36 ng/mL,10.0 days,9.8 days,,,,,,,,
O=C(O)CNC[C@H]1CC[C@]2(CC1)OO[C@]1(O2)C2CC3CC(C2)CC1C3 [OZ309],,,7.8 days,8.8 days,11 ng/mL,17 ng/mL,86%,99.80%,,,,
O=C(NC[C@H]1CC[C@]2(CC1)OOC1(O2)C2CC3CC(C2)CC1C3)c1cc[n+]([O-])cc1 (stereo partly drawn) [OZ264],1.2 ng/mL,1.5 ng/mL,,10.3 days,,,,99.92%,11.0 days,99.61%,13.7 days,99.97%
"CC(=O)Nc1ccc(S(=O)(=O)N2CCC3(CC2)OOC2(O3)C3CC4CC(C3)CC2C4)cc1 (stereo not drawn) [OZ104, Adamantane-2-spiro-3′-8′-[[4-(acetylamino)phenyl]sulfonyl]-1′,2′,4′-trioxa-8′-azaspiro[4.5]decane]",,,,5.7 days,1.4 ng/mL,0.5 ng/mL,,0%,6.3 days,56%,12.0 days,99.98%
"O=C(O)COCC(=O)N1CCC2(CC1)OOC1(O2)C2CC3CC(C2)CC1C3 (stereo not drawn) [OZ112, Adamantane-2-spiro-3′-8′-[(carboxymethoxy)acetyl]-1′,2′,4′-trioxa-8′-azaspiro[4.5]decane]",,,,5.7 days,> 10 ng/mL,> 10 ng/mL,,0%,5.7 days,6%,6.3 days,36%
C1C2CC3CC1CC(C2)C31OO[C@]2(CC[C@@H](CNC3CC3)CC2)O1 (stereo partly drawn) [OZ253],0.56 ng/mL,0.45 ng/mL,,6.7 days,,,,59%,7.0 days,75%,9.3 days,99.82%
CONC(=O)C[C@H]1CC[C@]2(CC1)OOC1(O2)C2CC3CC(C2)CC1C3 (stereo partly drawn) [OZ213],2.3 ng/mL,2.8 ng/mL,,8.0/8.0/8.0 days,,,,74%,8.0/8.0/8.0 days,83%,8.0/8.0/8.0 days,85%
NC[C@H]1CC[C@@]2(CC1)OOC1(O2)C2CC3CC(C2)CC1C3 (stereo partly drawn) [OZ269],0.32 ng/mL,0.61 ng/mL,,11.3 days,,,,86%,10.7 days,98%,9.0 days,99.92%
C1CC1CNC1CCC2(CC1)OOC1(O2)C2CC3CC(C2)CC1C3 (stereo not drawn) [OZ184],,,,7.0 days,1 ng/mL,1.4 ng/mL,,59%,6.7 days,54%,8.7 days,97%
